ChEMBL document CHEMBL3608297, “Structure-based de novo design and synthesis of aminothiazole-based p38 MAP kinase inhibitors” (Bioorg Med Chem Lett, 2015)

Biological target: MAP kinase p38 (Homo sapiens, UniProt O15264+Q15759+Q16539+P53778)
Experiment: Inhibition of p38 MAP kinase (unknown origin) by biochemical assay
Assay type: protein assay

SMILES	IC50 [nM]
O=C(c1ccccc1)c1cnc(Nc2ccccc2)s1	1070
O=C(c1cnc(Nc2ccc(F)cc2F)s1)c1ccccc1Cl	180
O=C(c1cnc(Nc2ccc(O)cc2F)s1)c1ccccc1Cl	250
O=C(c1cnc(Nc2ccc(F)cc2)s1)c1ccccc1Cl	330
Nc1cccc(Nc2ncc(C(=O)c3ccccc3Cl)s2)c1F	450
O=C(c1cnc(Nc2ccccc2)s1)c1ccccc1Cl	610
O=C(c1cnc(Nc2ccccc2F)s1)c1ccccc1Cl	790
O=C(c1cnc(Nc2ccc(Cl)cc2)s1)c1ccccc1Cl	910
O=C(c1cnc(Nc2ccc(Br)cc2)s1)c1ccccc1Cl	940
O=C(c1cnc(Nc2ccccc2)s1)c1ccccc1Br	1070
O=C(Nc1cccc(Nc2ncc(C(=O)c3ccccc3Cl)s2)c1)c1ccccc1	1200
COc1cccc(C(=O)c2cnc(Nc3ccccc3)s2)c1	1230
O=C(c1cccc(O)c1)c1cnc(Nc2ccccc2)s1	1310
COc1ccc(Nc2ncc(C(=O)c3ccccc3Cl)s2)cc1	1440
O=C(c1cnc(Nc2cccc([N+](=O)[O-])c2)s1)c1ccccc1Cl	1620
O=C(Nc1cccc(Nc2ncc(C(=O)c3ccccc3Cl)s2)c1F)c1ccccc1	1980
O=C(c1cnc(Nc2ccc(O)cc2)s1)c1ccccc1Cl	2040
O=C(c1cnc(Nc2cccc([N+](=O)[O-])c2F)s1)c1ccccc1Cl	12700
Nc1cccc(Nc2ncc(C(=O)c3ccccc3Cl)s2)c1	16200
Cc1ccccc1C(=O)c1cnc(Nc2ccccc2)s1	116000
Nc1ccc(Nc2ncc(C(=O)c3ccccc3Cl)s2)cc1	> 200000
